According to US7875587B2, “Peptide analogues of GIP for treatment of diabetes, insulin resistance and obesity” (UUTECH Limited, priority 2004, dated 2011):
Like-named read-outs stand apart in the source and are kept apart here. No end group written: not given here.

Experiments:
BRIN-BD11 cells = experiment: Acute tests for insulin secretion from BRIN-BD11 cells; assay type: cell-based; settings: 5.6 and 16.7 mM glucose, 10^-13 to 10^-8 M peptide
Procedure: Culture of insulin secreting cells. BRIN-BD11 cells were cultured in sterile tissue culture flasks (Corning, Glass Works, UK) using RPMI-1640 tissue culture medium containing 10% (v/v) foetal calf serum, 1% (v/v) antibiotics (100 U/ml penicillin, 0.1 mg/ml streptomycin) and 11.1 mM glucose. The cells were maintained at 37° C. in an atmosphere of 5% CO2 and 95% air using a LEEC incubator (Laboratory Technical Engineering, Nottingham, UK).
Acute tests for insulin secretion. Before experimentation, the cells were harvested from the surface of the tissue culture flasks with the aid of trypsin/EDTA (Gibco), seeded into 24-multiwell plates (Nunc, Roskilde, Denmark) at a density of 1.5×10^5 cells per well, and allowed to attach overnight at 37° C. Acute tests for insulin release were preceded by 40 minutes pre-incubation at 37° C. in 1.0 ml Krebs Ringer bicarbonate buffer (115 mM NaCl, 4.7 mM KCl, 1.28 mM CaCl2, 1.2 mM KH2PO4, 1.2 mM MgSO4, 10 mM NaHCO3, 5 g/l bovine serum albumin, pH 7.4) supplemented with 1.1 mM glucose. Test incubations were performed (n=12) at two glucose concentrations (5.6 mM and 16.7 mM) with a range of concentrations (10^−13 to 10^−8 M) of GIP or GIP analogues. After 20 minutes incubation, the buffer was removed from each well and aliquots (200 μl) were used for measurement of insulin by radioimmunoassay.

DPP IV = target: T1, DPP IV (Sus scrofa, UniProt P22411); experiment: Degradation of GIP and analogues by DPP IV (HPLC); assay type: in vitro ADME; settings: for resistance to in vitro degradation with DPP IV relative to native GIP: Example 3, summary of Table 1; for % Intact peptide remaining after time (h) / remaining at 2 h, 1 mmol/l / remaining at 4 h, 1 mmol/l / remaining at 8 h, 1 mmol/l / remaining at 24 h, 1 mmol/l: incubation with DPP IV; for % Intact peptide remaining after time (h): 0 h; for remaining at 2 h, 1 mmol/l / remaining at 4 h, 1 mmol/l / remaining at 8 h, 1 mmol/l / remaining at 24 h, 1 mmol/l: isolated enzyme dpp iv, pH 7.8, read-out: % Intact peptide remaining after time (h)
T1 construct: purchased Sigma (Poole, Dorset, UK)
Procedure: Degradation of GIP and Tyr^1-glucitol GIP by DPP IV. HPLC-purified GIP or Tyr^1-glucitol GIP were incubated at 37° C. with DPP-IV (5 mU) for various time periods in a reaction mixture made up to 500 μl with 50 mmol/l triethanolamine-HCl, pH 7.8 (final peptide concentration 1 mmol/l). Enzymatic reactions were terminated after 0, 2, 4 and 12 hours by addition of 5 μl of 10% (v/v) TFA/water. Samples were made up to a final volume of 1.0 ml with 0.12% (v/v) TFA and stored at −20° C. prior to HPLC analysis.
(§1) HPLC analysis of degraded GIP and Tyr^1-glucitol GIP. […] Using 0.1% (v/v) TFA in 70% acetonitrile/H20, the concentration of acetonitrile in the eluting solvent was raised from 0% to 31.5% over 15 min, to 38.5% over 30 minutes and from 38.5% to 70% over 5 minutes, using linear gradients. The absorbance was monitored at 206 nm and peak areas evaluated using a model 2221 LKB integrator. Samples recovered manually were concentrated using a Speed-Vac concentrator.
(§2) Electrospray ionization-mass spectrometry (ESI-MS) was carried out as described in Example 2. Degradation of GIP and novel GIP analogues by DPP IV and human plasma was carried out as described in Example 2.

[1] = Degradation of GIP and analogues by human plasma (HPLC); assay type: in vitro ADME; settings: for % Intact peptide remaining after incubations with human plasma: 0 h; for effect of DPA on plasma degradation of the peptide: 24 hours in the presence of DPA; for remaining at 2 h, 20 µg/ml / remaining at 4 h, 20 µg/ml / remaining at 8 h, 20 µg/ml / remaining at 24 h, 20 µg/ml: human, plasma, read-out: % Intact peptide remaining after incubations with human plasma; for remaining at 2 h, 20 µg/ml: pH 7.8, 2 h; for remaining at 4 h, 20 µg/ml: pH 7.8, 4 h; for remaining at 8 h, 20 µg/ml: pH 7.8, 8 h
Procedure: Degradation of GIP and Tyr^1-glucitol GIP by human plasma. […] […] The reactions were terminated by addition of 5 μl of TFA and the final volume adjusted to 1.0 ml using 0.1% v/v TFA/water. Samples were centrifuged (13,000 g, 5 minutes) and the supernatant applied to a C-18 Sep-Pak cartridge (Millipore-Waters) which was previously primed and washed with 0.1% (v/v) TFA/water. […] The volume was adjusted to 1.0 ml with 0.12% (v/v) TFA/water prior to HPLC purification.
as §1, §2

[2] = pH 7.8, 24 hours in the presence of DPA (diprotin A)

T1 sequence (P22411 whole entry): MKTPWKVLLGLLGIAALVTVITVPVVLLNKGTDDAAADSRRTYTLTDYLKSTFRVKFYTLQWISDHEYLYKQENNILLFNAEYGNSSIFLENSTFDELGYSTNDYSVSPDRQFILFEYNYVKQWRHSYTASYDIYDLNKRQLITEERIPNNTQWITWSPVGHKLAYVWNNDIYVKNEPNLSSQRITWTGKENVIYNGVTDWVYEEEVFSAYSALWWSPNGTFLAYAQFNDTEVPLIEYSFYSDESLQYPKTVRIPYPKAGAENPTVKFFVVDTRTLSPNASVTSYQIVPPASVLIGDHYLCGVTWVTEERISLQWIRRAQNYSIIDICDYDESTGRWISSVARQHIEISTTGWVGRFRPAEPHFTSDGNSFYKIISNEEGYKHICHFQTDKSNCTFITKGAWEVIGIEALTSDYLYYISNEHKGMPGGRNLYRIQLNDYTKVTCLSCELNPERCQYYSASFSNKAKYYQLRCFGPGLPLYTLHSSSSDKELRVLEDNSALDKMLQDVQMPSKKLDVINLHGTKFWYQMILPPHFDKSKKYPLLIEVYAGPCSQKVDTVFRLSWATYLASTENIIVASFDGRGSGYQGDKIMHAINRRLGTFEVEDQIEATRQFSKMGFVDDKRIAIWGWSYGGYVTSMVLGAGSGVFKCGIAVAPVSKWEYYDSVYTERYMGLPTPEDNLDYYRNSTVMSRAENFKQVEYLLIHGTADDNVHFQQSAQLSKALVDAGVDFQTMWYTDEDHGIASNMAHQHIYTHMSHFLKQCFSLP

Compound	insulin secretion from BRIN-BD11 cells (BRIN-BD11 cells)	resistance to in vitro degradation with DPP IV relative to native GIP (DPP IV)	% Intact peptide remaining after time (h) (DPP IV) [%]	remaining at 2 h, 1 mmol/l (DPP IV) [%]	remaining at 4 h, 1 mmol/l (DPP IV) [%]	remaining at 8 h, 1 mmol/l (DPP IV) [%]	remaining at 24 h, 1 mmol/l (DPP IV) [%]	% Intact peptide remaining after incubations with human plasma [1] [%]	effect of DPA on plasma degradation of the peptide [1]	remaining at 2 h, 20 µg/ml [1] [%]	remaining at 4 h, 20 µg/ml [1] [%]	remaining at 8 h, 20 µg/ml [1] [%]	remaining at 24 h, 20 µg/ml ([1]; pH 7.8, 24 h) [%]	remaining at 24 h, 20 µg/ml [1, 2] [%]	effect of DPP IV inhibitor on degradation of GIP by plasma [1]	plasma degradation ([1]; Example 3, summary of Table 2)
YSEGTFISDYSIAMDKIHQQDFVNWLLAQKGKKNDWKHNITQ-OH [GIP (Ser^2)]	strong response	more resistant than native GIP	100	77 ± 2	60 ± 1	32 ± 4	0	100	complete abolition of degradation	77 ± 2	60 ± 1	32 ± 4	0	63 ± 3	–	–
Ile-Pro-Ile [diprotin A, reference compound]	–	–	–	–	–	–	–	–	–	–	–	–	–	–	completely inhibited degradation of the peptide by plasma	–
CC[C@H](NC(=O)[C@@H](N)Cc1ccc(O)cc1)C(=O)N[C@@H](CCC(=O)O)C(=O)NCC(=O)N[C@H](C(=O)N[C@@H](Cc1ccccc1)C(=O)N[C@H](C(=O)N[C@@H](CO)C(=O)N[C@@H](CC(=O)O)C(=O)N[C@@H](Cc1ccc(O)cc1)C(=O)N[C@@H](CO)C(=O)N[C@H](C(=O)N[C@@H](C)C(=O)N[C@@H](CCSC)C(=O)N[C@@H](CC(=O)O)C(=O)N[C@@H](CCCCN)C(=O)N[C@H](C(=O)N[C@@H](Cc1c[nH]cn1)C(=O)N[C@@H](CCC(N)=O)C(=O)N[C@@H](CCC(N)=O)C(=O)N[C@@H](CC(=O)O)C(=O)N[C@@H](Cc1ccccc1)C(=O)N[C@H](C(=O)N[C@@H](CC(N)=O)C(=O)N[C@@H](Cc1c[nH]c2ccccc12)C(=O)N[C@@H](CC(C)C)C(=O)N[C@@H](CC(C)C)C(=O)N[C@@H](C)C(=O)N[C@@H](CCC(N)=O)C(=O)N[C@@H](CCCCN)C(=O)NCC(=O)N[C@@H](CCCCN)C(=O)N[C@@H](CCCCN)C(=O)N[C@@H](CC(N)=O)C(=O)N[C@@H](CC(=O)O)C(=O)N[C@@H](Cc1c[nH]c2ccccc12)C(=O)N[C@@H](CCCCN)C(=O)N[C@@H](Cc1c[nH]cn1)C(=O)N[C@@H](CC(N)=O)C(=O)N[C@H](C(=O)N[C@H](C(=O)N[C@@H](CCC(N)=O)C(=O)O)[C@@H](C)O)[C@@H](C)CC)C(C)C)[C@@H](C)CC)[C@@H](C)CC)[C@@H](C)CC)[C@@H](C)O [GIP (Abu^2)]	complex pattern of responsiveness dependent on glucose concentration and dose employed	more resistant than native GIP	100	38 ± 1	28 ± 2	0	0	100	complete abolition of degradation	38 ± 1	28 ± 2	0	0	100	–	–
CC[C@H](C)[C@H](NC(=O)[C@H](CO)NC(=O)[C@H](Cc1ccc(O)cc1)NC(=O)[C@H](CC(=O)O)NC(=O)[C@H](CO)NC(=O)[C@@H](NC(=O)[C@H](Cc1ccccc1)NC(=O)[C@@H](NC(=O)CNC(=O)[C@H](CCC(=O)O)NC(=O)CN(C)C(=O)[C@@H](N)Cc1ccc(O)cc1)[C@@H](C)O)[C@@H](C)CC)C(=O)N[C@@H](C)C(=O)N[C@@H](CCSC)C(=O)N[C@@H](CC(=O)O)C(=O)N[C@@H](CCCCN)C(=O)N[C@H](C(=O)N[C@@H](Cc1c[nH]cn1)C(=O)N[C@@H](CCC(N)=O)C(=O)N[C@@H](CCC(N)=O)C(=O)N[C@@H](CC(=O)O)C(=O)N[C@@H](Cc1ccccc1)C(=O)N[C@H](C(=O)N[C@@H](CC(N)=O)C(=O)N[C@@H](Cc1c[nH]c2ccccc12)C(=O)N[C@@H](CC(C)C)C(=O)N[C@@H](CC(C)C)C(=O)N[C@@H](C)C(=O)N[C@@H](CCC(N)=O)C(=O)N[C@@H](CCCCN)C(=O)NCC(=O)N[C@@H](CCCCN)C(=O)N[C@@H](CCCCN)C(=O)N[C@@H](CC(N)=O)C(=O)N[C@@H](CC(=O)O)C(=O)N[C@@H](Cc1c[nH]c2ccccc12)C(=O)N[C@@H](CCCCN)C(=O)N[C@@H](Cc1c[nH]cn1)C(=O)N[C@@H](CC(N)=O)C(=O)N[C@H](C(=O)N[C@H](C(=O)N[C@@H](CCC(N)=O)C(=O)O)[C@@H](C)O)[C@@H](C)CC)C(C)C)[C@@H](C)CC [GIP (Sar^2)]	complex pattern of responsiveness dependent on glucose concentration and dose employed	less resistant	100	28 ± 2	8	0	0	100	–	28 ± 2	8	0	0	100	–	resistance to plasma degradation
CC[C@H](C)[C@H](NC(=O)[C@H](CO)NC(=O)[C@H](Cc1ccc(O)cc1)NC(=O)[C@H](CC(=O)O)NC(=O)[C@H](CO)NC(=O)[C@@H](NC(=O)[C@H](Cc1ccccc1)NC(=O)[C@@H](NC(=O)CNC(=O)[C@H](CCC(=O)O)NC(=O)[C@H](C)NC(=O)[C@H](Cc1ccc(O)cc1)NC(C)=O)[C@@H](C)O)[C@@H](C)CC)C(=O)N[C@@H](C)C(=O)N[C@@H](CCSC)C(=O)N[C@@H](CC(=O)O)C(=O)N[C@@H](CCCCN)C(=O)N[C@H](C(=O)N[C@@H](Cc1c[nH]cn1)C(=O)N[C@@H](CCC(N)=O)C(=O)N[C@@H](CCC(N)=O)C(=O)N[C@@H](CC(=O)O)C(=O)N[C@@H](Cc1ccccc1)C(=O)N[C@H](C(=O)N[C@@H](CC(N)=O)C(=O)N[C@@H](Cc1c[nH]c2ccccc12)C(=O)N[C@@H](CC(C)C)C(=O)N[C@@H](CC(C)C)C(=O)N[C@@H](C)C(=O)N[C@@H](CCC(N)=O)C(=O)N[C@@H](CCCCN)C(=O)NCC(=O)N[C@@H](CCCCN)C(=O)N[C@@H](CCCCN)C(=O)N[C@@H](CC(N)=O)C(=O)N[C@@H](CC(=O)O)C(=O)N[C@@H](Cc1c[nH]c2ccccc12)C(=O)N[C@@H](CCCCN)C(=O)N[C@@H](Cc1c[nH]cn1)C(=O)N[C@@H](CC(N)=O)C(=O)N[C@H](C(=O)N[C@H](C(=O)N[C@@H](CCC(N)=O)C(=O)O)[C@@H](C)O)[C@@H](C)CC)C(C)C)[C@@H](C)CC [N-Acetyl-GIP]	–	more resistant than native GIP	100	100	100	100	–	–	–	–	–	–	–	–	–	–
